Assays:
Type in all cases: in vivo, mouse
wild-type CD1 mice [1] = assay: Rotarod assay (motor function); conditions: for latency to fall from the rod (motor function): FIG. 1A, first cohort, 3 consecutive 5 min trials, caffeine 100 mg/kg i.p. as positive control; for time to fall from the rod, average across 3 trials on treatment day: FIG. 11, CBD 100 mg/kg, THC 1 mg/kg, 1:1, 100:1 given 60 min before, diazepam 5 mg/kg i.p. 30 min before
Procedure: Locomotor function was assessed using the rotarod (see Assay description and relevant methods in Example 5). Mice are placed on a turning rod with increasing speed of rotation. Latency to fall from the rod is collected.
The rotarod assay was used to measure impaired motor function in mice. The assay is divided into three trials of 5 min each separated by 10 min of resting time. For each trial, mice are place on a stationary rod. Once the animal is in place, the rod rotation was initiated at a rate of 4 rpm per min, with increasing speed up to 60 rpm at 5 min. Each animal was trained for two days following this protocol and tested on the third day. The latency to fall from the rod was reported as the mean+/−SEM of all the mice for each trial.
A week after Y-maze, motor function was assessed using rotarod. Administration of drugs was performed 60 min prior to testing except for caffeine (positive control) which was administered 30 min prior to testing.
Animals used in this experiment were also used for light aversion and spatial memory, and were tested a third time in the rotarod assay. Briefly, two weeks after the last Y-maze run, animals were subjected to 3 consecutive days of rotarod assay. The first two days were used for habituation, then animals were divided in 6 different treatment groups: • negative control group: vehicle (sunflower oil), • positive control group: diazepam (5 mg/kg i.p.), • CBD (100 mg/kg), • THC (1 mg/kg), • 1:1 (1 mg/kg of both CBD and THC), and • 100:1 (100 mg/kg of CBD and 1 mg/kg of THC).
All treatments were administered 60 minutes prior to the third day of rotarod assay, except for diazepam which was administered 30 minutes prior to the assay.

wild-type CD1 mice [2] = assay: Light/dark assay, CGRP-induced light aversion (Test 1)
Procedure: All drugs were administered by intraperitoneal (i.p.) injection. CGRP and caffeine were administered at 10 μl/g bodyweight with a 30 g×0.5 needle. CBD, THC and the diverse ratios of CBD:THC were administered at 3.3 μl/g bodyweight with a 23 g×0.5 needle. Rat α-CGRP (Sigma-Aldrich, USA) was administered at 0.1 mg/kg, caffeine (Sigma-Aldrich, USA) was administered at 100 mg/kg, and both were diluted in vehicle, Dulbecco PBS (Hyclone, GE Healthcare Life Science, USA). CBD was administered at 1 or 100 mg/kg, THC was administered at 1 mg/kg, and both were diluted in vehicle sunflower oil (Sigma-Aldrich, USA) Animals were gently held but not anesthetized during injection. Mice were allowed to recover for 30 to 60 min in their home cages before testing (see figure legend and experimental design for precisions).
(§1) The light/dark assay was used to measure the animals' aversion to bright light, which is a surrogate for photophobia. Briefly, mice are placed individually in light/dark boxes that consist in two compartments, one brightly lit and the other not lit, black and fully enclosed. Mice can move freely in between them. An infrared beam tracking system (Med Associates) monitors and quantifies the behavior. Light-aversive animals will spend more time in the dark compartment than naïve animals Data were collected using Activity Monitor version 7.06 from twelve chambers as previously described. Mice were pre-exposed to the chamber once (baseline, data not shown) to reduce exploratory drive, then tested with bright light (25,000 lux). Data were collected for 30 min and analyzed in sequential 5 min intervals. The time in light was reported as the mean+/−SEM of all the mice at each interval and as the mean+/−SEM of the average time per interval for each individual mouse.
Test 1: test the efficacy of CBD and/or THC on CGRP-induced light aversion. Drug administration was performed i.p. by ASW or AK, 60 minutes prior to testing. Thirty minutes before testing, animals were injected a second time with CGRP (0.1 mg/kg) in order to induce the migraine-like state. Only one group was administered with PBS and represents the negative control in this run. The group that received sunflower oil+CGRP represents the positive control. Those injections were also performed i.p by ASW or AK. Thirty minutes later, animals were placed in the light aversion chambers, and tested for 30 minutes.

wild-type CD1 mice [3] = assay: Y-maze assay (spatial memory); conditions: treatments 55 minutes prior to the first trial; CBD 100 mg/kg, THC 1 mg/kg, 1:1, 100:1
Procedure: The Y-maze assay was used to measure spatial memory using a 3-arm maze. The assay is divided into two trials separated by an intertrial period. During the first trial, one arm (novel arm) is closed, and mice are left to explore the two other arms for 5 min. Mice are then placed back in their home cages for the 2 min intertrial period. During the second trial, mice are able to explore all arms. A mouse with a good spatial memory will enter the previously unexplored (novel) arm more frequently than the other arms. A mouse with poor spatial memory will show no preference. The number of entries and time in the novel arm during the second trial was reported as the mean+/−SEM of all the mice at each interval (30 sec) and as the mean+/−SEM of the total time for the trial for each individual mouse.
A week after Test 2, spatial memory was assessed using Y-maze. Administration of drugs was performed 60 min prior to testing except for CGRP (positive control) which was administered 30 min prior to testing.
Animals used in this experiment were also used for light aversion (and later rotarod). […]
All treatments were administered 55 minutes prior to the first 5-minute trial, and therefore 62 minutes before the second 2-minute trial. No effect of CBD, THC and CBD:THC ratios on spatial memory was assessed by the Y-maze.

wild-type CD1 mice [4] = assay: Light/dark assay without CGRP trigger (Test 2); conditions: FIG. 4, absence of the CGRP trigger; average per 5 minutes
From the text: as §1
Test 2: test the possible effects of CBD and/or THC by themselves on light aversion. Animals were given a week to recover. Then the same groups were used for Test 2, and only the second injection was reversed. All groups received vehicle 30 minutes before testing, except for the first group that was administered with CGRP and was the positive control for this test. […]

[5] = FIG. 5A, all mice, co-administered with CGRP
[6] = FIGS. 3A-3B, all mice, drugs i.p. 60 min, CGRP 0.1 mg/kg 30 min before testing, CBD 100 mg/kg, THC 1 mg/kg

Row | Compound | latency to fall from the rod (motor function) (wild-type CD1 mice [1]) | time to fall from the rod, average across 3 trials on treatment day (wild-type CD1 mice [1]) | time spent resting in the dark (CGRP-induced increase) (wild-type CD1 mice [2]; [5]) | time spent in the light (CGRP-induced light aversion) (wild-type CD1 mice [2]; [6]) | spatial memory: number of entries and time spent in the novel arm during trial 2 (wild-type CD1 mice [3]) | further results
1 | Cn1c(=O)c2c(ncn2C)n(C)c1=O [caffeine] | didn't yield the expected results |  |  |  |  | 
2 | CCCCCc1cc(O)c2c(c1)OC(C)(C)[C@@H]1CCC(C)=C[C@@H]21 [THC, tetrahydrocannabinol] | seemed to increase motor function (trend only) | showed increases in time to fall that were not significant | seem to attenuate the phenotype | failed to reverse the CGRP-induced decrease in time spent in the light | No effect | time spent resting in the dark (CGRP-induced increase) (wild-type CD1 mice [2]; FIG. 5C, male mice): seemed to have an effect
3 | CN1C(=O)CN=C(c2ccccc2)c2cc(Cl)ccc21 [diazepam] |  | showed a robust decrease in time to fall from the rod |  |  |  | latency to fall from the rod (wild-type CD1 mice [1]; FIG. 1B, rotarod trial with diazepam as positive control): produced the expected increased time to fall
4 | calcitonin gene-related peptide [CGRP] |  |  | induces a significant increase in the time spent resting in the dark | induces a significant decrease in time spent in the light |  | time spent in the light (CGRP-induced light aversion) (wild-type CD1 mice [2]; FIG. 3D, male mice): inducing a strong and significant decrease of the time spent in the light compartment; time spent resting in the light compartment (wild-type CD1 mice [2]; FIG. 6, data as a function of time): does not increase the time spent resting in the light compartment; time spent in the light (CGRP-induced light aversion) (wild-type CD1 mice [2]; FIG. 7, experiment with 30:1, 100:1 as control ratio): induces a significant decrease in time spent in the light; average time in the light (wild-type CD1 mice [4]): spending less time in the light than the veh+veh mice
5 | C=C(C)[C@@H]1CCC(C)=C[C@H]1c1c(O)cc(CCCCC)cc1O [CBD, cannabidiol] |  | yielded similar results as the vehicle group | neither CBD alone nor the 1:1 ratio reversed this increased resting time | failed to reverse the CGRP-induced decrease in time spent in the light | No effect | 

Reference: patent US12029721B2, “Compositions comprising cannabinoids and methods of use” (Schedule 1 Therapeutics, Inc., priority 2021, dated 2024)
